Measured values as given in patent US8552208B2, “Analogs of tetramic acid” (University of Tennesseee Research Foundation, priority 2007, dated 2013).
In brackets after ≈: the same amount, converted by molar mass. Like-named read-outs stand apart in the source and are kept apart here.

Columns and labels:
[1] = test system: Propionibacterium acnes ATCC 6919; assay: Antibacterial activity assay (MIC, broth dilution); assay type: cell-based; conditions: Cutibacterium acnes, ATCC6919; Propionibacterium acnes ATCC 6919; read-out: MIC, PA
[2] = test system: MSSA (ATCC 25293) biofilm; assay: Calgary Biofilm Device anti-biofilm activity; assay type: cell-based; conditions: Staphylococcus aureus, MSSA biofilm, triplicate runs listed singly; for MBC: read-out: MBEC = Minimum Biofilm Eradication Concentration; for MIC: read-out: MBIC = Minimum Biofilm Inhibitory Concentration
[3] = test system: MRSA (ATCC 35391) biofilm; assay: Calgary Biofilm Device anti-biofilm activity; assay type: cell-based, Staphylococcus aureus; conditions: Staphylococcus aureus, MRSA biofilm, triplicate runs listed singly; for MBC: read-out: MBEC = Minimum Biofilm Eradication Concentration; for MIC: read-out: MBIC = Minimum Biofilm Inhibitory Concentration
[4] = test system: Streptococcus pneumoniae DAW30EC; assay: Antibacterial activity assay (MIC, broth dilution); assay type: cell-based; conditions: Streptococcus pneumoniae DAW30EC; read-out: MIC, SPn
[5] = test system: Methicillin sensitive Staphylococcus aureus 8325 ATCC 35556; assay: Antibacterial activity assay (MIC, broth dilution); assay type: cell-based; conditions: ATCC 35556 / MSSA; Methicillin sensitive Staphylococcus aureus 8325 ATCC 35556; read-out: MIC, MSSA
[6] = test system: Mycobacterium tuberculosis H37 Rv; assay: Antibacterial activity assay (MIC, broth dilution); assay type: cell-based; conditions: H37RV, 168 h; Mycobacterium tuberculosis H37 Rv; […]; read-out: MIC, TB
[7] = test system: Bacillus anthracis Sterne 34F2; assay: microbe, parasite or virus in culture; assay type: cell-based; conditions: STERNE34F2, read-out: MIC, BA
[8] = test system: Bacillus subtilis ATCC 23857; assay: Antibacterial activity assay (MIC, broth dilution); assay type: cell-based; conditions: ATCC23857; Bacillus subtilis ATCC 23857; read-out: MIC, BS
[9] = test system: Streptococcus pyogenes ATCC 700294; assay: Antibacterial activity assay (MIC, broth dilution); assay type: cell-based; conditions: ATCC700294; Streptococcus pyogenes ATCC 700294; read-out: MIC, SP
[10] = test system: S. epidermidis (RP62A) biofilm; assay: Calgary Biofilm Device anti-biofilm activity; assay type: cell-based; conditions: Staphylococcus epidermidis, S. epidermidis biofilm, triplicate runs listed singly; for MBC: read-out: MBEC = Minimum Biofilm Eradication Concentration; for MIC: read-out: MBIC = Minimum Biofilm Inhibitory Concentration
[11] = test system: Methicillin Resistant Staphylococcus aureus ATCC 33591; assay: Antibacterial activity assay (MIC, broth dilution); assay type: cell-based; conditions: ATCC 33591 / MRSA, read-out: MIC, MRSA
[12] = test system: Enterococcus faecalis ATCC 33186; assay: Antibacterial activity assay (MIC, broth dilution); assay type: cell-based; conditions: ATCC33186; Enterococcus faecalis ATCC 33186; read-out: MIC, EF
Cytotoxicity assay (MTT) = assay type: cell-based, monkey; conditions: monkey, Vero cells, 72 hours, MTT, read-out: IC50 (Cytotoxicity): Concentration which reduces viability of Vero kidney cells by 50%
Experimental: (§1) Cytotoxicity assays of drugs of Formula I of Example 3 and of Formula II of Example 5 were performed using the Vero monkey kidney cell line (ATCC, CCL-81). Vero cells were grown in tissue culture flasks in Dulbecco's Modified Eagle's Medium (ATCC) supplemented with 10% fetal bovine serum and maintained in a humidified incubator (37° C., 5% CO2). Cells were removed with a cell scraper, collected by centrifugation and then suspended in fresh medium at ˜10^6 cells/mL. The cell suspensions were dispensed into 96-well microtiter plates (100 μl/well) and incubated for 18 hours at 37° C. before being used for cytotoxicity assays. Test compounds were subsequently added at concentrations ranging from 400-0.024 μg/mL and 0.1% vol/vol of Triton-X 100, which causes 100% death of cells, was included as a control. After incubating cells and compounds for 72 hours in humid air (37° C., 5% CO2) the cytopathic effects of compounds were determined using the MTT Cell Proliferation Assay (ATCC, Cat No. 30-1010K). The MTT solution reagent (10 μl) was added to each well and plates incubated at 37° C. until sufficient purple color development occurred in cells (3 hours). After detergent cell lysis, the purple formazan product was measured at 570 nm in a Synergy HT Biotek microplate reader. IC50 data was obtained from dose response curves plotted from percentage activity versus log10 concentration using Graphpad prism 5.

[13] = test system: Vero monkey kidney cell line (ATCC, CCL-81); assay: Cytotoxicity assay (MTT); assay type: cell-based; conditions: IC50 divided by MIC against S. aureus 8325
Experimental: as §1

[14] = test system: clinical isolates of MSSA (methicillin sensitive S. aureus); assay type: cell-based
[15] = test system: clinical isolates of MRSA (methicillin resistant S. aureus); assay type: cell-based
[16] = Vero monkey kidney cells (ATCC CCL-81)

With `CC(C)=CCCC(C)CCN1C(=O)/C(=C(/C)O)C(=O)[C@@H]1CC(C)C` (stereo partly drawn) [Compound 13m, (5S,Z)-1-(3,7-dimethyloct-6-enyl)-3-(1-hydroxyethylidene)-5-isobutylpyrrolidine-2,4-dione] the MIC [1] was 0.4 µg/mL (≈ 1.19 µM), the MBC [2] was 200 µg/mL (≈ 596 µM) and the MIC [2] was 0.8 µg/mL (≈ 2.38 µM). For the same compound, the MBC [3] was 50 µg/mL (≈ 149 µM), the MIC [3] was 0.8 µg/mL (≈ 2.38 µM) and the MIC [4] was 3.25 µg/mL (≈ 9.69 µM). It also gave an MIC [5] of 0.4 µg/mL (≈ 1.19 µM), an MIC [6] of 200 µg/mL (≈ 596 µM) and an MIC [7] of 0.4 µg/mL (≈ 1.19 µM). The MIC [8] was 0.8 µg/mL (≈ 2.38 µM), the MIC [9] was 25 µg/mL (≈ 74.5 µM) and the MBC [10] was 200 µg/mL (≈ 596 µM). The MIC [10] was 0.4 µg/mL (≈ 1.19 µM), the MIC [11] was 0.8 µg/mL (≈ 2.38 µM) and the MIC [12] was 0.8 µg/mL (≈ 2.38 µM). The IC50 at 72 h (Cytotoxicity assay (MTT)) was 7.3 µg/mL and the “IC50/MIC = Selectivity (therapeutic) index” value [13] was 18.3.
Compound `CCCCCCCCCCN1C(=O)/C(=C(/C)O)C(=O)[C@@H]1C(C)C` [Compound 13i, (S,Z)-1-decyl-3-(1-hydroxyethylidene)-5-isopropylpyrrolidine-2,4-dione] has an MIC [1] of 0.4 µg/mL (≈ 1.24 µM), an MBC [2] of 100 µg/mL (≈ 309 µM) and an MIC [2] of 0.8 µg/mL (≈ 2.47 µM). The MBC [3] was 25 µg/mL (≈ 77.3 µM), the MIC [3] was 0.8 µg/mL (≈ 2.47 µM) and the MIC [4] was 6.25 µg/mL (≈ 19.3 µM). It also gave an MIC [5] of 0.8 µg/mL (≈ 2.47 µM), an MIC [6] of 12.5 µg/mL (≈ 38.6 µM) and an MIC [7] of 0.8 µg/mL (≈ 2.47 µM). The MIC [8] was 0.4 µg/mL (≈ 1.24 µM), the MIC [9] was 25 µg/mL (≈ 77.3 µM) and the MBC [10] was 25 µg/mL (≈ 77.3 µM). For the same compound, the MIC [10] was 0.8 µg/mL (≈ 2.47 µM), the MIC [11] was 0.8 µg/mL (≈ 2.47 µM) and the MIC [12] was 0.8 µg/mL (≈ 2.47 µM). For the same compound, the IC50 at 72 h (Cytotoxicity assay (MTT); [16]) was 7 µg/mL and the “IC50/MIC = Selectivity (therapeutic) index” value [13] was 8.8.
`C/C(O)=C1\C(=O)[C@H](CC(C)C)N(Cc2ccc(-c3ccccc3)cc2)C1=O` [Compound 13k, (S,Z)-1-(biphenyl-4-ylmethyl)-3-(1-hydroxyethylidene)-5-isobutylpyrrolidine-2,4-dione] showed an MIC [1] of 0.2 µg/mL (≈ 0.55 µM), an MBC [2] of 100 µg/mL (≈ 275 µM) and an MIC [2] of 3.12 µg/mL (≈ 8.58 µM). The “Antibiotic MIC” value ([14]; isolate MSSA-11) was 1.6 µg/mL, the “Antibiotic MIC” value ([14]; isolate MSSA-12) was 0.8 µg/mL and the “Antibiotic MIC” value ([14]; isolate MSSA-13) was 0.8 µg/mL. For the same compound, the “Antibiotic MIC” value ([14]; isolate MSSA-14) was 0.8 µg/mL, the “Antibiotic MIC” value ([14]; isolate MSSA-15) was 0.4 µg/mL and the “Antibiotic MIC” value ([14]; isolate MSSA-16) was 0.8 µg/mL. The “Antibiotic MIC” value ([14]; isolate MSSA-17) was 0.8 µg/mL, the “Antibiotic MIC” value ([14]; isolate MSSA-18) was 0.8 µg/mL and the “Antibiotic MIC” value ([14]; isolate MSSA-19) was 0.8 µg/mL. For the same compound, the “Antibiotic MIC” value ([14]; isolate MSSA-20) was 0.8 µg/mL, the MBC [3] was 100 µg/mL (≈ 275 µM) and the MIC [3] was 0.8 µg/mL (≈ 2.2 µM). The MIC [4] was 12.5 µg/mL (≈ 34.4 µM), the MIC [5] was under 0.1 µg/mL and the MIC [6] was 50 µg/mL (≈ 138 µM). The MIC [7] was 0.4 µg/mL (≈ 1.1 µM), the MIC [8] was 0.4 µg/mL (≈ 1.1 µM) and the MIC [9] was 25 µg/mL (≈ 68.8 µM). For the same compound, the “Antibiotic MIC” value ([15]; isolate MRSA-1) was 1.6 µg/mL, the “Antibiotic MIC” value ([15]; isolate MRSA-2) was 1.6 µg/mL and the “Antibiotic MIC” value ([15]; isolate MRSA-3) was 1.6 µg/mL. The “Antibiotic MIC” value ([15]; isolate MRSA-4) was 1.6 µg/mL, the “Antibiotic MIC” value ([15]; isolate MRSA-5) was 1.6 µg/mL and the “Antibiotic MIC” value ([15]; isolate MRSA-6) was 0.8 µg/mL. The “Antibiotic MIC” value ([15]; isolate MRSA-7) was 0.8 µg/mL, the “Antibiotic MIC” value ([15]; isolate MRSA-8) was 0.4 µg/mL and the “Antibiotic MIC” value ([15]; isolate MRSA-9) was 1.6 µg/mL. For the same compound, the “Antibiotic MIC” value ([15]; isolate MRSA-10) was 0.8 µg/mL, the MBC [10] was 200 µg/mL (≈ 550 µM) and the MIC [10] was 1.6 µg/mL (≈ 4.4 µM). It also gave an MIC [11] of 0.8 µg/mL (≈ 2.2 µM), an MIC [12] of 0.8 µg/mL (≈ 2.2 µM) and an IC50 at 72 h (Cytotoxicity assay (MTT); [16]) of 19.7 µg/mL. For the same compound, the “IC50/MIC = Selectivity (therapeutic) index” value [13] was over 197.
With `CCCCN1C(=O)/C(=C(/C)O)C(=O)[C@@H]1CC(C)C` [Compound 13j, (S,Z)-1-butyl-3-(1-hydroxyethylidene)-5-isobutylpyrrolidine-2,4-dione] the MIC [1] was 0.8 µg/mL (≈ 3.16 µM), the “Antibiotic MIC” value ([14]; isolate MSSA-11) was 12.5 µg/mL and the “Antibiotic MIC” value ([14]; isolate MSSA-12) was 6.25 µg/mL. For the same compound, the “Antibiotic MIC” value ([14]; isolate MSSA-13) was 12.5 µg/mL, the “Antibiotic MIC” value ([14]; isolate MSSA-14) was 25 µg/mL and the “Antibiotic MIC” value ([14]; isolate MSSA-15) was 3.12 µg/mL. For the same compound, the “Antibiotic MIC” value ([14]; isolate MSSA-16) was 6.25 µg/mL, the “Antibiotic MIC” value ([14]; isolate MSSA-17) was 6.25 µg/mL and the “Antibiotic MIC” value ([14]; isolate MSSA-18) was 6.25 µg/mL. The “Antibiotic MIC” value ([14]; isolate MSSA-19) was 3.12 µg/mL, the “Antibiotic MIC” value ([14]; isolate MSSA-20) was 25 µg/mL and the MIC [4] was 100 µg/mL (≈ 395 µM). The MIC [5] was 3.12 µg/mL (≈ 12.3 µM), the MIC [6] was 100 µg/mL (≈ 395 µM) and the MIC [7] was 12.5 µg/mL (≈ 49.3 µM). The MIC [8] was 6.25 µg/mL (≈ 24.7 µM), the MIC [9] was over 200 µg/mL and the “Antibiotic MIC” value ([15]; isolate MRSA-1) was 50 µg/mL. For the same compound, the “Antibiotic MIC” value ([15]; isolate MRSA-2) was 25 µg/mL, the “Antibiotic MIC” value ([15]; isolate MRSA-3) was 25 µg/mL and the “Antibiotic MIC” value ([15]; isolate MRSA-4) was 25 µg/mL. The “Antibiotic MIC” value ([15]; isolate MRSA-5) was 25 µg/mL, the “Antibiotic MIC” value ([15]; isolate MRSA-6) was 25 µg/mL and the “Antibiotic MIC” value ([15]; isolate MRSA-7) was 50 µg/mL. For the same compound, the “Antibiotic MIC” value ([15]; isolate MRSA-9) was 6.25 µg/mL, the “Antibiotic MIC” value ([15]; isolate MRSA-10) was 50 µg/mL and the MIC [11] was 6.25 µg/mL (≈ 24.7 µM). For the same compound, the MIC [12] was 1.6 µg/mL (≈ 6.32 µM), the IC50 at 72 h (Cytotoxicity assay (MTT)) was 254 µg/mL and the “IC50/MIC = Selectivity (therapeutic) index” value [13] was 81.4.
